What was measured:
[1] = concentration changes of 13C methacetin and its dealkylation product Paracetamol in the blood followed by HPLC; settings: FIG. 8, blood
Description: (§1) Beside or additionally to the determination of the amount of a ^13C labelled metabolization product as for instance ^13CO2 in the exhalation air for estimating the liver performance it is also conceivable to follow the concentration decrease of the dealkylated product in the blood and to deduce from the corresponding slope kinetics a time constant tau.
(§2) The concentration changes of the administered ^13C labelled substrate, for instance ^13C methacetin and of the dealkylation product formed in the liver, for instance Paracetamol, are followed by the means of a suitable analytical method, for instance HPLC. […] The initial concentration changes can also be described here with a differential equation of first order.

[2] = in vivo
Description: as §1, §2

[3] = molecular target: T1, CYP1A2 (Homo sapiens, UniProt P05177); assay: breath test: 13CO2 increase in exhalation air after intravenous 13C methacetin (DOB slope kinetics, LiMAx); assay type: in vivo
T1 construct: follow directly and immediately the metabolization of the administered substrate by the enzymes present in the liver; from tissue; host or cells: liver of the living human subject (in vivo)
T1 sequence (P05177 1-516): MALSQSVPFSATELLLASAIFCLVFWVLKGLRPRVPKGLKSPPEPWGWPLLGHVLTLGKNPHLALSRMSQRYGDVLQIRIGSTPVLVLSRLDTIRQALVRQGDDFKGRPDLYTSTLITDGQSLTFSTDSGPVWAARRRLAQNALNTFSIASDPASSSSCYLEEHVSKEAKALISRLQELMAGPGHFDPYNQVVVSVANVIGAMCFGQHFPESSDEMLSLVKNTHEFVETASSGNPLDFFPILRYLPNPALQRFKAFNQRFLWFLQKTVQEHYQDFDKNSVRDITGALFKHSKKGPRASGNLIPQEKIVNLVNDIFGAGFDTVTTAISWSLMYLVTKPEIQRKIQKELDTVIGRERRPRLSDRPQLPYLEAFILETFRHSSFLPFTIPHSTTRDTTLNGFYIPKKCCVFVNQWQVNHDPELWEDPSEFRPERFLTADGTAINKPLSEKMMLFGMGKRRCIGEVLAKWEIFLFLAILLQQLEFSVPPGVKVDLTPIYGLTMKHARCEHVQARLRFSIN
Description: Thereby, the method according to an aspect of the invention comprises the steps of administering at least one ^13C labelled substrate, which is converted by the liver by releasing at least one ^13C labelled metabolization product, in particular ^13CO2 and the step of determining the amount of the at least one formed ^13C labelled metabolization product, in particular of the ^13CO2 amount, in the exhalation air over a definite time interval by the means of at least one measuring device with at least one evaluation unit. In an embodiment, the amount of the formed ^13C labelled metabolization product, in particular of ^13CO2 in the exhalation air, is proportional to the amount of the at least one administered substrate. The method according to an aspect of the invention is characterized in that it is now possible based on the determined measure points to describe the measured initial increase of the amount of the at least one ^13C labelled metabolization product, in particular of the ^13CO2 amount, in the exhalation air by the means of a differential equation of first order. Based on the solution of this differential equation of first order subsequently a maximum value Amax (also designated as DOBmax, whereby DOB stands for “delta over baseline”) and a time constant tau of the increase of the amount of the ^13C labelled metabolization product, in particular of the ^13CO2 amount, are determined.
wherein (t) stands for the metabolization dynamic of the at least one substrate, t for the measuring time, t0 for the start of the metabolization, tau for the time constant of the conversion and Amax for the maximum amplitude of the fitted function or the maximum concentration of the metabolization product and A0 for the initial concentration of the metabolization product. Therefore, a determination of Amax and the time constant tau is possible based on the above equation.
wherein RPDB corresponds to the value 0,011237 (Pee-Dee-Belemnite-standard of the ^13CO2/^12CO2-ratio), P to the CO2 production rate, M to the molar mass of the administered substance and BW to the body weight of the person.
In an embodiment of the present method the determination of the liver performance of a human occurs according to a scheme as shown in FIG. 2. During this measurement course the metabolization is started by the intravenous administering of the substrate to be metabolized, in particular ^13C methacetin 1 in combination with an isotonic sodium chloride solution 1a.
Beside an enzymatic activation of the substrate in particular by the P450 oxygenases also a release or activation of the substrate by the means of radiation or other fast processes is conceivable. The released metabolization product for instance ^13CO2 is transported via the blood into the lung and is there exhaled. The exhalation air is continuously transported into the measuring device 2, e.g., via a breathing mask and a connecting tube and is analyzed by the means of a computer 3 (Stockmann et al., Annals of Surgery, 2009, 250: col. 119-125). A measuring device suitable for the present method is for instance described in WO 2007/107366 A1.
Due to the specific measuring device being applied it is possible to follow the metabolization of the substrate in each breath in real time. This is emphasized in FIG. 3. […] Thereby 1 DOB indicates a change of the ^13CO2 to ^12CO2 ratio at about thousandth part over the natural ratio. As described before, Amax or DOBmax as well as the time constant tau are deducible from said slope. After the ^13CO2 increase has reached a maximum a decrease of the ^13CO2 concentration occurs what can be attributed to further dynamic processes in the body which contribute to the degradation of the measured signal.
described metabolization dynamics it is possible to follow directly and immediately the metabolization of the administered substrate by the enzymes present in the liver. If methacetin is administered as substrate, it is demethylated by the enzyme CYP1A2. […]

Row | SMILES | time constant τ1 for the initial fast concentration increase ([1]; Paracetamol formed from 13C methacetin) | time constant τ2 for the subsequent decelerated concentration increase ([1]; further distribution in the blood) | initial concentration in the blood [2] | measured maximum value A of the 13CO2 increase in the breathing air ([3]; FIG. 7, curve A, determined data points) | time constant tau for the conversion ([3]; FIG. 7, curve B, fit of the initial 13CO2 increase) | amplitude Amax of the fitted function ([3]; FIG. 7, curve B, fit with solution of a differential equation of first order) | maximum conversion ([3]; after the operation, residual liver volume 625 ml) | maximum conversion LiMAx ([3]; before the liver operation, total liver volume 1450 ml) | maximum conversion LiMAx ([3]; cirrhosis of the liver (FIG. 4b)) | maximum conversion LiMAx ([3]; corresponding to the aspired residual liver volume of 698 ml (rule of three)) | maximum conversion LiMAx ([3]; heavy liver damages (FIG. 4c)) | maximum conversion LiMAx ([3]; liver failure (FIG. 4d)) | maximum conversion LiMAx ([3]; normal liver performance (FIG. 4a))
1 | CC(=O)Nc1ccc(O)cc1 [Paracetamol] | 1.3 min | 16 min |  |  |  |  |  |  |  |  |  |  | 
2 | CC(=O)Nc1ccc(O[13CH3])cc1 [^13C methacetin, ^13C-methacetin] |  |  | 20 µg/mL | 22,01 DOB | 2.42 min | 22,09 DOB | 169 µg/h/kg | 307 µg/h/kg | 307 µg/h/kg | 165 µg/h/kg | 144 µg/h/kg | 55 µg/h/kg | 504 µg/h/kg

Reference: US20110313677A1, “METHOD FOR DETERMINING THE LIVER PERFORMANCE OF A LIVING ORGANISM BY THE MEANS OF QUANTITATIVE MEASURING THE METABOLIZATION OF SUBSTRATES” (HUMEDICS GMBH, priority 2009, published 2011)
